{
  "source": "patent US20200352934A1",
  "about": "“LOW-TEMPERATURE STABLE OPIOID ANTAGONIST SOLUTIONS” (priority 2017, published 2020)",
  "settings": "storage at 4° C.",
  "key": {"[1]": {"settings": "per 100 mL: EDTA-Na2 0 mg, PG 5% w/v"}, "[2]": {"settings": "per 100 mL: EDTA-Na2 0 mg, PG 10% w/v"}, "[3]": {"settings": "per 100 mL: EDTA-Na2 0 mg, PG 20% w/v"}, "[4]": {"settings": "per 100 mL: EDTA-Na2 100 mg, PG 5% w/v"}, "[5]": {"settings": "per 100 mL: EDTA-Na2 100 mg, PG 10% w/v"}, "[6]": {"settings": "per 100 mL: EDTA-Na2 100 mg, PG 20% w/v"}},
  "note": "Where two headings read alike, the source gives them in different places.",
  "data": [
    {"smiles": "C=CCN1CC[C@]23c4c5ccc(O)c4O[C@H]2C(=O)CC[C@@]3(O)[C@H]1C5", "note": "[Naloxone]", "values": [
      {"measurement": "Observed naloxone precipitation 24 days", "setting": "[1]", "value": "No"},
      {"measurement": "Observed naloxone precipitation 24 days", "setting": "[2]", "value": "No"},
      {"measurement": "Observed naloxone precipitation 24 days", "setting": "[3]", "value": "No"},
      {"measurement": "Observed naloxone precipitation 24 days", "setting": "[4]", "value": "No"},
      {"measurement": "Observed naloxone precipitation 24 days", "setting": "[5]", "value": "No"},
      {"measurement": "Observed naloxone precipitation 24 days", "setting": "[6]", "value": "No and Slight"},
      {"measurement": "Observed naloxone precipitation 35 days", "setting": "[1]", "value": "No"},
      {"measurement": "Observed naloxone precipitation 35 days", "setting": "[2]", "value": "No"},
      {"measurement": "Observed naloxone precipitation 35 days", "setting": "[3]", "value": "No"},
      {"measurement": "Observed naloxone precipitation 35 days", "setting": "[4]", "value": "No"},
      {"measurement": "Observed naloxone precipitation 35 days", "setting": "[5]", "value": "No"},
      {"measurement": "Observed naloxone precipitation 35 days", "setting": "[6]", "value": "No and Yes"},
      {"measurement": "Observed naloxone precipitation 53 days", "setting": "[1]", "value": "No"},
      {"measurement": "Observed naloxone precipitation 53 days", "setting": "[2]", "value": "No"},
      {"measurement": "Observed naloxone precipitation 53 days", "setting": "[3]", "value": "No"},
      {"measurement": "Observed naloxone precipitation 53 days", "setting": "[4]", "value": "No"},
      {"measurement": "Observed naloxone precipitation 53 days", "setting": "[5]", "value": "No and Slight"},
      {"measurement": "Observed naloxone precipitation 53 days", "setting": "[6]", "value": "No and Yes"}
    ]}
  ]
}
